# Patent publication US12091409B2, “Ether linked triazoles as NRF2 activators” (ASTEX THERAPEUTICS LIMITED, priority 2016, dated 2024)
# Structures can show the parent of a compound that is named as a salt.
# System: NQO1 specific enzyme activity in BEAS-2B cells (marker for NRF2 activation)
# Assay: BEAS-2B NQO1 MTT Assay
# Format: cell-based
# Conditions: Homo sapiens, BEAS-2B, 48 h, NQO1 specific activity induction, 48 hours with compound
# In short: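 Following 48 h compound treatment at 37° C., 5% CO2, cells were lysed and MTT cocktail added. Product formation was followed kinetically at 570 nm for 30 min. Rate (Delta OD/min) against log concentration was fitted with 3 parameters to give pEC50 for induction of NQO1 specific activity.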
row,Compound,EC50 [nM]
1,"CC[C@@H]1CN(Cc2cc(C(OCc3cn(Cc4cccc(Cn5cc(COC(c6ccc(C)c(CN7C[C@@H](CC)Oc8ccccc8S7(=O)=O)c6)C(C)(C)C(=O)O)nn5)c4)nn3)C(C)(C)C(=O)O)ccc2C)S(=O)(=O)c2ccccc2O1 (stereo partly drawn) [Example 47, (R)-3,3′-(((1,1′-(1,3-phenylenebis(methylene))bis(1H-1,2,3-triazole-4,1-diyl))bis(methylene))bis(oxy))bis(3-(3-(((R)-4-ethyl-1,1-dioxido-3,4-dihydro-2H-benzo[b][1,4,5]oxathiazepin-2-yl)methyl)-4-methylphenyl)-2,2-dimethylpropanoic acid)]",10 to 100
2,"Cc1ccc(C(OCc2cn(Cc3ccc(Cn4cc(COC(c5ccc(C)c(CN6C[C@@H](C)Oc7ccccc7S6(=O)=O)c5)C(C)(C)C(=O)O)nn4)cc3)nn2)C(C)(C)C(=O)O)cc1CN1C[C@@H](C)Oc2ccccc2S1(=O)=O (stereo partly drawn) [Example 48, (R)-3,3′-(((1,1′-(1,4-phenylenebis(methylene))bis(1H-1,2,3-triazole-4,1-diyl))bis(methylene))bis(oxy))bis(2,2-dimethyl-3-(4-methyl-3-(((R)-4-methyl-1,1-dioxido-3,4-dihydro-2H-benzo[b][1,4,5]oxathiazepin-2-yl)methyl)phenyl)propanoic acid)]",10 to 100
3,"CCCN1CCC(Cn2cc(COC(c3ccc(C)c(CN4C[C@@H](C)Oc5ccccc5S4(=O)=O)c3)C(C)(C)C(=O)O)nn2)CC1 (stereo partly drawn) [Example 52, 2,2-Dimethyl-3-(4-methyl-3-(((R)-4-methyl-1,1-dioxido-3,4-dihydro-2H-benzo[b][1,4,5]oxathiazepin-2-yl)methyl)phenyl)-3-((1-((I-propylpiperidin-4-yl)methyl)-1H-1,2,3-triazol-4-yl)methoxy)propanoic acid]",100 to 1000
4,"Cc1ccc(C(OCc2cn(CC3CCNCC3)nn2)C(C)(C)C(=O)O)cc1CN1C[C@@H](C)Oc2ccccc2S1(=O)=O (stereo partly drawn) [Example 53, 2,2-Dimethyl-3-(4-methyl-3-(((R)-4-methyl-1,1-dioxido-3,4-dihydro-2H-benzo[b][1,4,5]oxathiazepin-2-yl)methyl)phenyl)-3-((1-(piperidin-4-ylmethyl)-1H-1,2,3-triazol-4-yl)methoxy)propanoic Acid, Formic Acid Salt]",100 to 1000
5,"CCn1cc(COC(c2ccc(C)c(CN(CC3CCCCCC3)C(C)=O)c2)C(C)(C)C(=O)O)nn1 (stereo not drawn) [Example 54, 3-(3-((N-(cycloheptylmethyl)acetamido)methyl)-4-methylphenyl)-3-((1-ethyl-1H-1,2,3-triazol-4-yl)methoxy)-2,2-dimethylpropanoic acid]",100 to 1000
6,"Cc1ccc(C(OCc2cn(CC3CCN(C4CCN(C)CC4)CC3)nn2)C(C)(C)C(=O)O)cc1CN1C[C@@H](C)Oc2ccccc2S1(=O)=O (stereo partly drawn) [Example 55, 2,2-Dimethyl-3-(4-methyl-3-(((R)-4-methyl-1,1-dioxido-3,4-dihydro-2H-benzo[b][1,4,5]oxathiazepin-2-yl)methyl)phenyl)-3-((1-((1′-methyl-[1,4′-bipiperidin]-4-yl)methyl)-1H-1,2,3-triazol-4-yl)methoxy)propanoic Acid, Formic Acid Salt]",100 to 1000
7,"COC(=O)C(C)(C)C(OCc1cn(Cc2cccc(-c3ccnc(C(=O)O)c3)c2)nn1)c1ccc(C)c(CN2C[C@@H](C)Oc3ccccc3S2(=O)=O)c1 (stereo partly drawn) [Example 57, 4-(3-((4-((3-Methoxy-2,2-dimethyl-1-(4-methyl-3-(((R)-4-methyl-1,1-dioxido-3,4-dihydro-2H-benzo[b][1,4,5]oxathiazepin-2-yl)methyl)phenyl)-3-oxopropoxy)methyl)-1H-1,2,3-triazol-1-yl)methyl)phenyl)picolinic acid]",100 to 1000
8,"COC(=O)C(C)(C)C(OCc1cn(Cc2cccc(-c3cccc(C(=O)O)n3)c2)nn1)c1ccc(C)c(CN2C[C@@H](C)Oc3ccccc3S2(=O)=O)c1 (stereo partly drawn) [Example 58, 6-(3-((4-((3-Methoxy-2,2-dimethyl-1-(4-methyl-3-(((R)-4-methyl-1,1-dioxido-3,4-dihydro-2H-benzo[b][1,4,5]oxathiazepin-2-yl)methyl)phenyl)-3-oxopropoxy)methyl)-1H-1,2,3-triazol-1-yl)methyl)-phenyl)picolinic acid]",100 to 1000
9,"COC(=O)C(C)(C)C(OCc1cn(Cc2cccc(-c3ccc(C(=O)O)cn3)c2)nn1)c1ccc(C)c(CN2C[C@@H](C)Oc3ccccc3S2(=O)=O)c1 (stereo partly drawn) [Example 59, 6-(3-((4-((3-Methoxy-2,2-dimethyl-1-(4-methyl-3-(((R)-4-methyl-1,1-dioxido-3,4-dihydro-2H-benzo[b][1,4,5]oxathiazepin-2-yl)methyl)phenyl)-3-oxopropoxy)methyl)-1H-1,2,3-triazol-1-yl)methyl)-phenyl)nicotinic acid]",1000 to 10000
10,"CC[C@@H]1CN(Cc2cc(C(OCc3cn(CC)nn3)C(F)(F)C(=O)O)ccc2C)S(=O)(=O)c2ccccc2O1 (stereo partly drawn) [Example 60, 3-(3-(((R)-4-Ethyl-1,1-dioxido-3,4-dihydro-2H-benzo[b][1,4,5]oxathiazepin-2-yl)methyl)-4-methylphenyl)-3-((1-ethyl-1H-1,2,3-triazol-4-yl)methoxy)-2,2-difluoropropanoic acid]",100 to 1000
11,"CCn1cc(CO[C@H](c2ccc(C)c(CN3C[C@@H](C)Cc4ccncc4S3(=O)=O)c2)C(C)(C)C(=O)O)nn1 [Example 61, (3R)-((1-ethyl-1H-1,2,3-triazol-4-yl)methoxy)-2,2-dimethyl-3-(4-methyl-3-(((S)-4-methyl-1,1-dioxido-4,5-dihydropyrido[4,3-f][1,2]thiazepin-2(3H)-yl)methyl)phenyl)propanoic acid]",< 1
12,"CCn1cc(CO[C@H](c2ccc(C)c(CN3C[C@@H](C)Cc4ncccc4S3(=O)=O)c2)C(C)(C)C(=O)O)nn1 [Example 62, (3R)-((1-ethyl-1H-1,2,3-triazol-4-yl)methoxy)-2,2-dimethyl-3-(4-methyl-3-(((S)-4-methyl-1,1-dioxido-4,5-dihydropyrido[2,3-f][1,2]thiazepin-2(3H)-yl)methyl)phenyl)propanoic acid]",< 1
13,"CCn1cc(CO[C@@H](c2ccc(C)c(CN3C[C@H](C)Cc4ccncc4S3(=O)=O)c2)C(C)(C)C(=O)O)nn1 [Example 63, (3S)-((1-ethyl-1H-1,2,3-triazol-4-yl)methoxy)-2,2-dimethyl-3-(4-methyl-3-(((R)-4-methyl-1,1-dioxido-4,5-dihydropyrido[4,3-f][1,2]thiazepin-2(3H)-yl)methyl)phenyl)propanoic acid]",1000 to 10000
14,"CCn1cc(CO[C@@H](c2ccc(C)c(CN3C[C@H](C)Cc4ncccc4S3(=O)=O)c2)C(C)(C)C(=O)O)nn1 [Example 64, (3S)-((1-ethyl-1H-1,2,3-triazol-4-yl)methoxy)-2,2-dimethyl-3-(4-methyl-3-(((R)-4-methyl-1,1-dioxido-4,5-dihydropyrido[2,3-f][1,2]thiazepin-2(3H)-yl)methyl)phenyl)propanoic acid]",100 to 1000
15,"CCn1cc(CO[C@@H](c2ccc(C)c(CN3C[C@H](C)Cc4ccccc4S3(=O)=O)c2)C(C)(C)C(=O)O)nn1 [Example 65, (3S)-((1-ethyl-1H-1,2,3-triazol-4-yl)methoxy)-2,2-dimethyl-3-(4-methyl-3-(((R)-4-methyl-1,1-dioxido-4,5-dihydrobenzo[f][1,2]thiazepin-2(3H)-yl)methyl)phenyl)propanoic acid]",100 to 1000
